Reference: the supplement of paper PMC4862054
“And” between values parts separate entries of the source, which are not always exact repeats. Equal values may be shown once.

How the values were obtained:
Conditions in all cases: incubation time: 72 h
[1] = system: MDA-MB-231; test: normalised viability (% of control), CellTiter-Blue; higher = more viable cells (100 = DMSO, 0 = benzethonium chloride kill control)
Protocol: (§1)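 DSRT, CellTiter-Blue viability, 72 h incubation. Signal is normalised to DMSO and benzethonium chloride controls. Value is the normalised response at dose 1.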

[2] = system: BT-549; test: as above
Protocol: as §1

[3] = system: HCC1937; test: as above
Protocol: as §1

[4] = system: CAL-85-1; test: as above
Protocol: as §1

[5] = system: MFM-223; test: as above
Protocol: as §1

[6] = system: MDA-MB-436; test: as above
Protocol: as §1

[7] = system: Hs578T; test: as above
Protocol: as §1

[8] = system: SK-BR-3; test: as above
Protocol: as §1

[9] = system: MDA-MB-468; test: as above
Protocol: as §1

[10] = system: MDA-MB-453; test: as above
Protocol: as §1

[11] = system: CAL-120; test: as above
Protocol: as §1

[12] = system: HDQ-P1; test: as above
Protocol: as §1

[13] = system: DU-4475; test: as above
Protocol: as §1

[14] = system: HCC1599; test: as above
Protocol: as §1

[15] = system: CAL-148; test: as above
Protocol: as §1

[16] = system: BT-474; test: as above
Protocol: as §1

[17] = system: HCC1143; test: as above
Protocol: as §1

[18] = system: CAL-51; test: as above
Protocol: as §1

[19] = system: CAL-85-1; test: normalised viability (% of control), CellTiter-Blue; higher = more viable cells (about 100 = DMSO control)
Protocol: (§2)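 DSRT, CellTiter-Blue viability, 72 h incubation. Signal is normalised to DMSO and benzethonium chloride controls. Value is the normalised response at dose 9.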

[20] = system: MDA-MB-453; test: as above
Protocol: as §2

[21] = system: HDQ-P1; test: as above
Protocol: as §2

[22] = system: DU-4475; test: as above
Protocol: as §2

[23] = system: CAL-148; test: as above
Protocol: as §2

[24] = system: CAL-51; test: as above
Protocol: as §2

[25] = system: MDA-MB-231; test: normalised response (% of control), CellTiter-Glo; higher = more viable cells (100 = DMSO, 0 = benzethonium chloride kill control)
Procedure, shortened: (§3)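 Each entry is the normalised signal at a single concentration within a series. The series comprised 5 concentrations in 10-fold steps over a compound-specific 10,000-fold range, placed in 384-well plates into which breast cancer cell lines were seeded as 20 µl suspension and incubated 72 h. CellTox Green (485/520 nm) fluorescence and then CellTiter-Glo luminescence were read, with signals normalised per plate to 0.1 % DMSO (100) and a positive kill control (0).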

[26] = system: BT-549; test: as above
Procedure, shortened: as §3

[27] = system: HCC1937; test: as above
Procedure, shortened: as §3

[28] = system: CAL-85-1; test: as above
Procedure, shortened: as §3

[29] = system: MFM-223; test: as above
Procedure, shortened: as §3

[30] = system: MDA-MB-436; test: as above
Procedure, shortened: as §3

[31] = system: Hs578T; test: as above
Procedure, shortened: as §3

[32] = system: SK-BR-3; test: as above
Procedure, shortened: as §3

[33] = system: MDA-MB-468; test: as above
Procedure, shortened: as §3

[34] = system: MDA-MB-453; test: as above
Procedure, shortened: as §3

[35] = system: CAL-120; test: as above
Procedure, shortened: as §3

[36] = system: HDQ-P1; test: as above
Procedure, shortened: as §3

[37] = system: DU-4475; test: as above
Procedure, shortened: as §3

[38] = system: HCC1599; test: as above
Procedure, shortened: as §3

[39] = system: CAL-148; test: as above
Procedure, shortened: as §3

[40] = system: BT-474; test: as above
Procedure, shortened: as §3

[41] = system: MCF-10A; test: as above
Procedure, shortened: as §3

[42] = system: HCC1143; test: as above
Procedure, shortened: as §3

[43] = system: CAL-51; test: as above
Procedure, shortened: as §3

Structure (SMILES)	normalised viability [1]	normalised viability [2]	normalised viability [3]	normalised viability [4]	normalised viability [5]	normalised viability [6]	normalised viability [8]	normalised viability [9]	normalised viability [10]	normalised viability [11]	normalised viability [12]	normalised viability [13]	normalised viability [14]	normalised viability [15]	normalised viability [17]	normalised viability [18]	normalised viability [19]	normalised viability [20]	normalised viability [21]	normalised viability [22]	other results
Cc1cc(Nc2cc(CN3CCOCC3)c3nc(C)c(Cc4ccc(Cl)cc4F)n3n2)n[nH]1 (1 nM)	89.5%	97.8%	85.9%	82.1%	93.8%	87.7%	104%	103%	85.3%	86.9%	65.2%	119%	110%	95.6%	88.6%	98%	–	–	–	–	normalised viability [7]: 107%; normalised viability [16]: 92.4%
Cc1cc(Nc2cc(CN3CCOCC3)c3nc(C)c(Cc4ccc(Cl)cc4F)n3n2)n[nH]1 (10000 nM)	–	–	–	–	–	–	–	–	–	–	–	–	–	–	–	–	33.1%	36%	15%	36.9%	normalised viability [23]: 62.4%; normalised viability [24]: 12.5%
COC(=O)c1ccc2c(c1)NC(=O)/C2=C(\Nc1ccc(N(C)C(=O)CN2CCN(C)CC2)cc1)c1ccccc1 [BIBF 1120] (1 nM)	129%	119%	117%	94.3%	91.8%	114%	93.3%	108%	101%	83.6%	114%	112%	87.2%	105%	95.7%	99.7%	–	–	–	–	normalised viability [7]: 109%; normalised viability [16]: 124%
COC(=O)c1ccc2c(c1)NC(=O)/C2=C(\Nc1ccc(N(C)C(=O)CN2CCN(C)CC2)cc1)c1ccccc1 [BIBF 1120] (10000 nM)	–	–	–	–	–	–	–	–	–	–	–	–	–	–	–	–	53.9%	2.37%	56.6%	24.8%	normalised viability [23]: 70.5%; normalised viability [24]: 42.3%
Nc1cc(C(F)(F)F)c(-c2cc(N3CCOCC3)nc(N3CCOCC3)n2)cn1 [BKM-120] (10000 nM)	–	–	–	–	–	–	–	–	–	–	–	–	–	–	–	–	20.1%	6.1%	12.4%	12.7%	normalised viability [23]: 6.46%; normalised viability [24]: 4.15%
COc1cc2ncnc(Nc3ccc(F)c(Cl)c3)c2cc1OCCCN1CCOCC1 [Gefitinib] (1 nM)	94.2% and 90.6%	120% and 111%	91.6% and 89.4%	85.3% and 81.5%	89.3% and 83.4%	92.2% and 90.9%	87.4% and 97.4%	90% and 110%	97.3% and 100%	77.2% and 85.9%	108% and 86.3%	104% and 98.6%	85.7% and 96.3%	107% and 106%	73.7% and 90.5%	108% and 107%	–	–	–	–	normalised response [25]: 97.2%; normalised response [26]: 94.8%; normalised response [27]: 91.6%; normalised response [28]: 101%; normalised response [29]: 105%; normalised response [30]: 85.5%; normalised response [31]: 99%; normalised response [32]: 108%; normalised response [33]: 105%; normalised response [34]: 109%; normalised response [35]: 97.6%; normalised response [36]: 94.4%; normalised response [37]: 99.3%; normalised response [38]: 99.2%; normalised response [39]: 107%; normalised response [40]: 97.7%; normalised response [41]: 98.8%; normalised response [42]: 102%; normalised response [43]: 93.1%
